ChEMBL document CHEMBL1150719, “Constituents of Tritonia crocosmaeflora, I. Tricrozarin A, a novel antimicrobial naphthazarin derivative” (1987)
In brackets after ≈: the same amount, converted by molar mass.

Experiments:
Assay type in all cases: functional
[1] = system: Bacillus subtilis; assay: Antibacterial activity against Bacillus subtilis PCI 219 after 24 hrs at 37 degC by paper disk assay; conditions: PCI 219, 24 h
[2] = system: Micrococcus luteus; assay: Antibacterial activity against Micrococcus luteus ATCC 9341 after 24 hrs at 37 degC by paper disk assay; conditions: ATCC 9341, 24 h
[3] = system: Aspergillus niger; assay: Antifungal activity against Aspergillus niger ATCC 6275 at 27 degC by paper disk assay
[4] = system: Mucor racemosus; assay: Antifungal activity against Mucor racemosus IFO 5403 at 27 degC by paper disk assay
[5] = system: Candida albicans; assay: Antifungal activity against Candida albicans KF1 at 27 degC by paper disk assay
[6] = system: Saccharomyces; assay: Antifungal activity against Saccharomyces sake KF26 at 27 degC by paper disk assay

MIC [1]: 5.1 µg/mL (≈ 17.3 µM) | MIC [2]: 112 µg/mL (≈ 381 µM) | MIC [3]: 81.3 µg/mL (≈ 276 µM) | MIC [4]: 10.2 µg/mL (≈ 34.7 µM) | MIC [5]: 81.3 µg/mL (≈ 276 µM) | MIC [6]: 81.3 µg/mL (≈ 276 µM)
SMILES: COC1=C(OC)C(=O)c2c(O)c3c(c(O)c2C1=O)OCO3 [TRICROZARIN A]
